Key:
MCP-1 = MCP-1 chemokine secretion by TNFα-stimulated primary human hepatic stellate cells (ELISA); assay type: cell-based; settings: for MCP-1 chemokine secretion, per-cell normalized, fold change from plasma amino acid background: primary human hepatic stellate cells, two donors, TNFα 3 ng/mL, 12 hours
Experimental: Primary human hepatic stellate cells were obtained from Samsara Sciences and grown in Complete HSC Medium to […] confluence in T75 or T150 flasks below passage 10 were seeded into 96-well plates and incubated for 6 hours at 37° C., 5% CO2 in a humidified incubator. After 6 hours, plates were removed from the incubator washed with DPBS and pretreated (±single amino acid dropout, ±supplemental amino acid dose; see experiment for medium composition) overnight, ˜14-15 hours. After overnight pretreatment, the medium was removed from the cells, and the same pretreatment medium, now supplemented with 3 ng/mL TNFα was applied. Plates were incubated for 12 hours at 37° C., 5% CO2. After 12 hour stimulus with TNFα, supernatant was removed and frozen at −80° C. in two separate aliquots. Plates were washed and incubated with CCK-8 viability reagent (Dojindo) for 1 hour. Viability was measured on the Synergy plate reader. Immediately, the medium was removed and the plates were fixed for immunofluorescence staining.
Human CCL2/MCP1 and Human IL-6 were measured by ELISA (Human […] DuoSet ELISA, R&D Systems; Human IL-6 DuoSet ELISA, R&D Systems) at ⅕ and 1/20 dilution in 1× Reagent Diluent (Reagent Ancillary Kit 2, R&D Systems). Data were normalized to the specific per well cell density determined by Hoechst stained nuclei count.
Tables 35-38 show per-cell normalized MCP-1 chemokine secretion in primary human hepatic stellate cells from two donors as a fold change from the plasma amino acid background. Statistical significance calculated by one-way ANOVA with Dunnett's multiple comparison test within each treatment group.

IL-6 = assay: LPS-induced IL-6 secretion in primary human monocyte-derived macrophages (ELISA); assay type: cell-based; settings: for IL-6 Measurements Mean: LPS 0.15 ng/mL, baseline subtracted; for LPS-induced IL-6 secretion: macrophages, 0.15 ng/mL LPS
Experimental: Unpurified buffy coats (Research Blood Components) were carefully poured into 50 mL centrifuge tubes and diluted with room temperature Dulbecco's Phosphate Buffered Saline (dPBS) with Calcium and Magnesium (Gibco). Diluted buffy coats were further divided into four total 50 mL centrifuge tubes at 20 mL per tube. Lymphocyte Separation Medium (Corning) was carefully pipetted to the bottom of each centrifuge tube. Mixtures were centrifuged at 850× g for 32 minutes at 20° C. with 0 deceleration and acceleration.
The PBMC layer was separated from other components after centrifugation and added to new 50 mL centrifuge tube containing 25 mL dPBS. Total volume was brought up to 50 mL with dPBS and centrifuged at 600×g for 10 minutes at 20° C. with acceleration of 9, deceleration of 5. Supernatant was carefully removed from cell pellets. The cell pellets were resuspended using 10 mL dPBS. Total volume was then brought up to 50 mL using dPBS and centrifuged at 450×g for 5 min at 20° C. with acceleration of 9, deceleration of 9. The supernatant removal and cell pellet resuspension was repeated again.
The supernatant was then carefully removed from cell pellets. Cell pellets were resuspended in 10 mL dPBS without calcium or magnesium and filtered through a 70 uM cell strainer. The total PBMC number was determined using a Cellometer K2 automated cell counter. A total of 5E6 cells were saved for flow cytometric analysis. Remaining cells were centrifuged at 490×g for 5 minutes at 20° C. with acceleration of 9, deceleration of 9.
CD14+ cells were selected using EasySep™ Human CD14 Positive Selection Kit II ([…] Technologies). Cells were resuspended in cold EasySep™ Buffer ([…] Technologies) at 1×10^8 cells/mL. A total of 100 uL/mL EasySep™ Human CD14 Positive Selection Cocktail II was added to the cell suspension, mixed, and incubated at room temperature for 10 minutes. A total of 100 uL/mL RapidSpheres were added to the mixture and incubated at room temperature for 3 minutes after mixing, then RoboSep buffer was added to bring up the total volume to 10 mL. The mixture in a 15 mL tube was placed in magnet and incubated at room temperature for 3 minutes. Supernatant was discarded and 10 mL fresh EasySep™ buffer was added to 15 mL tube. The addition of RoboSep buffer, mixing, and discarding of supernatant was repeated two more times.
Negative and positive fractions were centrifuged at 490×g for 5 minutes at 20° C. with acceleration of 9, deceleration of 9, and resuspended in DMEM (Gibco) and 10% Heat Inactivated Fetal Bovine Serum (Atlanta Bio) and Penicillin/Streptomycin. Cells were counted and centrifuged again at 490× g for 5 minutes at 20° C. with acceleration of 9, deceleration of 9. After centrifugation, cell were resuspended in DMEM (Gibco) and 10% Heat Inactivated Fetal Bovine Serum (Atlanta Bio) and Penicillin/Streptomycin containing 500 U/mL […] and plated at 1-2×10^6 cells/mL on 10 cm tissue culture plates. Cells were kept in 37° C., 5% CO2 in between feedings/harvest.
Cells were fed every 3-4 days by removing media and unattached cells, centrifuging at 490× g for 5 minutes at 20° C. with acceleration of 9, deceleration of 9, and resuspending in fresh DMEM (Gibco) and 10% Heat Inactivated Fetal Bovine Serum (Atlanta Bio) and Penicillin/Streptomycin containing GM-CSF. Resuspended cells were seeded back onto 10 cm tissue culture plates and incubated at 37° C., 5% CO2. Differentiated macrophages were used for subsequent experiments.
Primary human PMBC derived macrophages were seeded on day 0 at 3.0E4 cells per well in 96-well microplates (ThermoFisher) in Dulbecco's Modified Eagle Medium (DMEM) (Gibco) supplemented with penicillin-streptomycin (Hyclone) and 10% heat inactivated fetal bovine serum (HI-FBS) (Atlanta Bio) and incubated overnight at 37° C., 5% CO2. On day 1, cells were washed once with 150 uL per well DPBS (Gibco) and treated with 75 uL of: • a. […]

CC(C)[C@H](N)C(=O)O [Valine, L-Valine]
Fold Change MCP1 Secretion Normalized Per Cell (MCP-1; donor 3, Conc. 234 μM (plasma background, reference)): 1.0000 | Fold Change MCP1 Secretion Normalized Per Cell (MCP-1; donor 3, Conc. 4684 μM): 1.0630 | Fold Change MCP1 Secretion Normalized Per Cell (MCP-1; donor 3, Conc. 11710 μM): 1.0204 | Fold Change MCP1 Secretion Normalized Per Cell (MCP-1; donor 3, Conc. 23420 μM): 1.2651 | Fold Change MCP1 Secretion Normalized Per Cell (MCP-1; donor 4, Conc. 234 μM (plasma background, reference)): 1.0000 | MCP-1 chemokine secretion, per-cell normalized, fold change from plasma amino acid background (MCP-1): no significant impact | IL-6 Measurements Mean (IL-6; Donor 1, Conc. 234 μM (baseline)): 0 | IL-6 Measurements Mean (IL-6; Donor 1, Conc. 4684 μM): −85.9843 | IL-6 Measurements Mean (IL-6; Donor 1, Conc. 11710 μM): −97.25 | IL-6 Measurements Mean (IL-6; Donor 1, Conc. 23420 μM): −106.268 | IL-6 Measurements Mean (IL-6; Donor 2, Conc. 234 μM (baseline)): −4.7E−15 | IL-6 Measurements Mean (IL-6; Donor 2, Conc. 4684 μM): −4.528 | IL-6 Measurements Mean (IL-6; Donor 2, Conc. 11710 μM): −1.196 | IL-6 Measurements Mean (IL-6; Donor 2, Conc. 23420 μM): 4.396 | IL-6 Measurements Mean (IL-6; Donor 3, Conc. 234 μM (baseline)): 4.26E−14 | IL-6 Measurements Mean (IL-6; Donor 3, Conc. 4684 μM): −30.0609 | IL-6 Measurements Mean (IL-6; Donor 3, Conc. 11710 μM): −43.8022 | IL-6 Measurements Mean (IL-6; Donor 3, Conc. 23420 μM): −29.2004

N=C(N)NCCC[C@H](N)C(=O)O [Arginine, L-Arginine]
Fold Change MCP1 Secretion Normalized Per Cell (MCP-1; donor 3, Conc. 109 μM (plasma background, reference)): 1.0000 | Fold Change MCP1 Secretion Normalized Per Cell (MCP-1; donor 3, Conc. 1088 μM): 0.9435 | Fold Change MCP1 Secretion Normalized Per Cell (MCP-1; donor 3, Conc. 2720 μM): 0.8821 | Fold Change MCP1 Secretion Normalized Per Cell (MCP-1; donor 3, Conc. 5440 μM): 0.7840 | Fold Change MCP1 Secretion Normalized Per Cell (MCP-1; donor 4, Conc. 109 μM (plasma background, reference)): 1.0000 | Fold Change MCP1 Secretion Normalized Per Cell (MCP-1; donor 4, Conc. 1088 μM): 1.0453 | Fold Change MCP1 Secretion Normalized Per Cell (MCP-1; donor 4, Conc. 2720 μM): 1.0446 | Fold Change MCP1 Secretion Normalized Per Cell (MCP-1; donor 4, Conc. 5440 μM): 0.9456 | MCP-1 chemokine secretion, per-cell normalized, fold change from plasma amino acid background (MCP-1): no significant impact | IL-6 Measurements Mean (IL-6; Donor 1, Conc. 109 μM (baseline)): 0 | IL-6 Measurements Mean (IL-6; Donor 1, Conc. 1088 μM): −181.36 | IL-6 Measurements Mean (IL-6; Donor 1, Conc. 2720 μM): −186.57 | IL-6 Measurements Mean (IL-6; Donor 1, Conc. 5440 μM): 357.4394 | IL-6 Measurements Mean (IL-6; Donor 2, Conc. 109 μM (baseline)): 2.37E−15 | IL-6 Measurements Mean (IL-6; Donor 2, Conc. 1088 μM): −9.701 | IL-6 Measurements Mean (IL-6; Donor 2, Conc. 2720 μM): −13.6102 | IL-6 Measurements Mean (IL-6; Donor 2, Conc. 5440 μM): −12.4164 | IL-6 Measurements Mean (IL-6; Donor 3, Conc. 109 μM (baseline)): 0 | IL-6 Measurements Mean (IL-6; Donor 3, Conc. 1088 μM): 31.5786 | IL-6 Measurements Mean (IL-6; Donor 3, Conc. 2720 μM): −7.503 | IL-6 Measurements Mean (IL-6; Donor 3, Conc. 5440 μM): −6.81 | LPS-induced IL-6 secretion (IL-6; Donor 1): increased

CC(C)C[C@H](N)C(=O)O [Leucine, L-Leucine]
Fold Change MCP1 Secretion Normalized Per Cell (MCP-1; donor 3, Conc. 153 μM (plasma background, reference)): 1.0000 | Fold Change MCP1 Secretion Normalized Per Cell (MCP-1; donor 3, Conc. 3054 μM): 1.1479 | Fold Change MCP1 Secretion Normalized Per Cell (MCP-1; donor 3, Conc. 7635 μM): 1.3054 | Fold Change MCP1 Secretion Normalized Per Cell (MCP-1; donor 3, Conc. 15270 μM): 1.1808 | Fold Change MCP1 Secretion Normalized Per Cell (MCP-1; donor 4, Conc. 153 μM (plasma background, reference)): 1.0000 | MCP-1 chemokine secretion, per-cell normalized, fold change from plasma amino acid background (MCP-1): no significant impact | IL-6 Measurements Mean (IL-6; Donor 1, Conc. 153 μM (baseline)): 0 | IL-6 Measurements Mean (IL-6; Donor 1, Conc. 3054 μM): 244.9743 | IL-6 Measurements Mean (IL-6; Donor 1, Conc. 7635 μM): −69.9873 | IL-6 Measurements Mean (IL-6; Donor 1, Conc. 15270 μM): 84.46 | IL-6 Measurements Mean (IL-6; Donor 2, Conc. 153 μM (baseline)): 7.11E−15 | IL-6 Measurements Mean (IL-6; Donor 2, Conc. 3054 μM): 29.61 | IL-6 Measurements Mean (IL-6; Donor 2, Conc. 7635 μM): 30.46 | IL-6 Measurements Mean (IL-6; Donor 2, Conc. 15270 μM): 47.6 | LPS-induced IL-6 secretion (IL-6; Donor 2): increased

— patent US20210260010A1, “COMPOSITIONS AND METHODS FOR THE REDUCTION OR TREATMENT OF INFLAMMATION” (AXCELLA HEALTH INC., priority 2018, published 2021)
